The source of these data is ChEMBL document CHEMBL2396605 (Bioorg Med Chem Lett, 2013).

SMILES strings stand for the structures.

A word on the IC50: it is the midpoint of a concentration-inhibition curve.

Chain of D-amino-acid oxidase (Sus scrofa, UniProt P00371) (P00371 whole entry): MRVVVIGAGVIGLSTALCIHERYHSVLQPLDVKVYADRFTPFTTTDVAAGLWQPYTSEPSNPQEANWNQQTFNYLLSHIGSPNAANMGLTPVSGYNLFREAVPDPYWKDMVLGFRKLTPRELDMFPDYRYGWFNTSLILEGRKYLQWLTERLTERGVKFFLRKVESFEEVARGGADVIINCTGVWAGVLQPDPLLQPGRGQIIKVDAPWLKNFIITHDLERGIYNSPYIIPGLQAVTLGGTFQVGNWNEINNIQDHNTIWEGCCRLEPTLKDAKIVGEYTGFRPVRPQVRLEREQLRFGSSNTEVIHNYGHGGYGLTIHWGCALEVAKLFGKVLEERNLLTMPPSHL

The first test concerns the target D-amino-acid oxidase (Sus scrofa, UniProt P00371). Kind of test: Inhibition of pig DAAO assessed as D-Serine conversion to H2O2 by spectrophotometric analysis.
For the compound `O=C(O)c1cc[nH]n1`, the concentration for half-maximal inhibition (IC50) is less than 100 µM.
Consider `O=C(O)c1ccc[nH]1`, for which the IC50 was less than 10 µM.
The same measure, in the same setting: the same measure for `O=C(O)c1cc(CCc2ccccc2)[nH]n1`: less than 1 µM; for `O=C(O)c1cc(CCc2ccccc2)c[nH]1`: less than 1 µM.

The target of another test is D-amino-acid oxidase (Homo sapiens, UniProt P14920). Nature of the test: Inhibition of human recombinant DAAO expressed in HEK293 cell lysate assessed as D-Serine conversion to H2O2 after 20 mins by spectrophotometric analysis. Format: cell-free.
Chain of D-amino-acid oxidase (Homo sapiens, UniProt P14920) (P14920 whole entry): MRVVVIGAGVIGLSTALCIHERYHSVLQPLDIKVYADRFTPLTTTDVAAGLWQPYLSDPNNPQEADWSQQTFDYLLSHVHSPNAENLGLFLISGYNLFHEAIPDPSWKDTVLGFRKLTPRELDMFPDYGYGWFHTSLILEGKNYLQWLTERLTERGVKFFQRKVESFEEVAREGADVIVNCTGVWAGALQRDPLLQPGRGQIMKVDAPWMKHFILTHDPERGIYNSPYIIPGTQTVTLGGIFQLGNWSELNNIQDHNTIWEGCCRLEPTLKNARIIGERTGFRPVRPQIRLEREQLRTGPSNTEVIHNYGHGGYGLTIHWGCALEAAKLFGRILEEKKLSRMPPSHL
Consider `O=c1cc(CSc2ccc(Cl)c(Cl)c2)occ1O`, for which the IC50 came out at 0.1 µM.
Still for that read-out and setting: the same measure for `O=c1cc(COc2cccnc2)occ1O`: 3 µM; for `O=c1cc(COc2ccc(Cl)c(Cl)c2)occ1O`: 0.5 µM.
With `O=c1cc(COCc2ccccc2)occ1O`, the IC50 amounted to 20 µM.
For `O=c1cc(COc2ccc(F)cc2)occ1O`, the IC50 stood at 0.8 µM.
The same measure, in the same setting: the figure for `O=c1ccn(CCc2ccccc2)cc1O` is more than 100 µM; for `O=c1cc(COC2CCCCO2)occ1O` (stereo not drawn) it is more than 100 µM.
On the same count and under the same terms, the figure for `O=c1cc(CSc2ccc(F)cc2)occ1O` is 0.3 µM; for `O=c1cc(CCc2ccccc2)occ1O` it is 0.5 µM.
In the case of `O=c1cc(CSc2ncccn2)occ1O`, the IC50 came to 4 µM.
Same read-out and setting: the figure for `O=c1cc(COc2cccc3ccccc23)occ1O` is 0.9 µM; for `COc1coc(CO)cc1=O` it is more than 100 µM.
As for `O=c1cc(COc2ccccc2)occ1O`, the IC50 is 0.9 µM.
The same measure, in the same setting: the same measure for `O=c1cc(COc2ccc(Cl)cc2)occ1O`: 0.7 µM; for `CCOCc1cc(=O)c(O)co1`: more than 100 µM.
On the same count and under the same terms, the same measure for `O=c1cc(CSc2ccc(Cl)cc2)occ1O`: 0.2 µM; for `O=c1cc(CSc2ccccc2)occ1O`: 0.2 µM; for `COCc1cc(=O)c(O)co1`: 50 µM.
Same read-out and setting: the figure for `O=c1cc(COc2ccc3ccccc3c2)occ1O` is 0.8 µM.
